Measurements: patent publication US12077503B2, “Substituted cyclic amides and their use as herbicides” (FMC CORPORATION, priority 2015, dated 2024)

Tests used:
Assay type in all cases: in vivo
[1] = system: barnyardgrass (Echinochloa crus-galli); test: Test A postemergence; details: Echinochloa crus-galli, post-emergence, 240 h, read-out: Plant response rating, Barnyardgrass; for pest or weed control at 125 g/ha: 125 g ai/ha, Postemergence, visual injury after approximately 10 d, 0 to 100 scale where 0 is no effect and 100 is complete control; for pest or weed control at 500 g/ha: 500 g ai/ha, postemergence, visual injury, 0 to 100 scale (0 no effect, 100 complete control), approx. 10 d
In short: (§1)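 Visual injury scores from 0, no effect, to 100, complete control, were assigned versus untreated controls roughly 10 d after treatment in the greenhouse. Test chemicals, formulated with surfactant in a non-phytotoxic solvent, were applied to planted seeds as a preemergence soil spray or postemergence to one- to two-leaf plants 2 to 10 cm tall, in loam–sand soil.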

[2] = system: ryegrass, Italian (Italian ryegrass, Lolium multiflorum); test: Test A postemergence; details: Lolium multiflorum, post-emergence, 240 h, read-out: Plant response rating, Ryegrass, Italian; for pest or weed control at 125 g/ha: 125 g ai/ha, Postemergence, visual injury after approximately 10 d, 0 to 100 scale where 0 is no effect and 100 is complete control; for pest or weed control at 500 g/ha: 500 g ai/ha, postemergence, visual injury, 0 to 100 scale (0 no effect, 100 complete control), approx. 10 d
In short: as §1

[3] = system: blackgrass (Alopecurus myosuroides); test: Test A postemergence; details: Alopecurus myosuroides, post-emergence, 240 h, read-out: Plant response rating, Blackgrass; for pest or weed control at 125 g/ha: 125 g ai/ha, Postemergence, visual injury after approximately 10 d, 0 to 100 scale where 0 is no effect and 100 is complete control; for pest or weed control at 500 g/ha: 500 g ai/ha, postemergence, visual injury, 0 to 100 scale (0 no effect, 100 complete control), approx. 10 d
In short: as §1

[4] = system: Kochia (Kochia scoparia); test: Test A postemergence; details: Bassia scoparia, post-emergence, 240 h, read-out: Plant response rating, Kochia; for pest or weed control at 125 g/ha: 125 g ai/ha, Postemergence, visual injury after approximately 10 d, 0 to 100 scale where 0 is no effect and 100 is complete control; for pest or weed control at 500 g/ha: 500 g ai/ha, postemergence, visual injury, 0 to 100 scale (0 no effect, 100 complete control), approx. 10 d
In short: as §1

[5] = system: giant foxtail (Setaria faberii); test: Test A postemergence; details: Setaria faberi, post-emergence, 240 h, read-out: Plant response rating, Foxtail, Giant; for pest or weed control at 125 g/ha: 125 g ai/ha, Postemergence, visual injury after approximately 10 d, 0 to 100 scale where 0 is no effect and 100 is complete control; for pest or weed control at 500 g/ha: 500 g ai/ha, postemergence, visual injury, 0 to 100 scale (0 no effect, 100 complete control), approx. 10 d
In short: as §1

[6] = system: corn (Zea mays); test: Test A postemergence; details: Zea mays, post-emergence, 240 h; for Corn plant response rating (crop injury, 0 = no effect, 100 = complete kill) at 125 g/ha: 125 g ai/ha, Postemergence, visual injury after approximately 10 d, 0 to 100 scale where 0 is no effect and 100 is complete control; for Corn plant response rating (crop injury, 0 = no effect, 100 = complete kill) at 500 g/ha: 500 g ai/ha, postemergence, visual injury, 0 to 100 scale (0 no effect, 100 complete control), approx. 10 d
In short: as §1

[7] = system: ragweed (common ragweed, Ambrosia elatior); test: Test A postemergence; details: Ambrosia artemisiifolia, post-emergence, 240 h, read-out: Plant response rating, Ragweed; for pest or weed control at 125 g/ha: 125 g ai/ha, Postemergence, visual injury after approximately 10 d, 0 to 100 scale where 0 is no effect and 100 is complete control; for pest or weed control at 500 g/ha: 500 g ai/ha, postemergence, visual injury, 0 to 100 scale (0 no effect, 100 complete control), approx. 10 d
In short: as §1

[8] = system: Galium (catchweed bedstraw, Galium aparine); test: Test A postemergence; details: Galium, post-emergence, 240 h, read-out: Plant response rating, Galium; for pest or weed control at 125 g/ha: 125 g ai/ha, Postemergence, visual injury after approximately 10 d, 0 to 100 scale where 0 is no effect and 100 is complete control; for pest or weed control at 500 g/ha: 500 g ai/ha, postemergence, visual injury, 0 to 100 scale (0 no effect, 100 complete control), approx. 10 d
In short: as §1

[9] = system: pigweed (Amaranthus retroflexus); test: Test A postemergence; details: Amaranthus retroflexus, post-emergence, 240 h, read-out: Plant response rating, Pigweed; for pest or weed control at 125 g/ha: 125 g ai/ha, Postemergence, visual injury after approximately 10 d, 0 to 100 scale where 0 is no effect and 100 is complete control; for pest or weed control at 500 g/ha: 500 g ai/ha, postemergence, visual injury, 0 to 100 scale (0 no effect, 100 complete control), approx. 10 d
In short: as §1

[10] = system: wheat (Triticum aestivum); test: Test A postemergence; details: Triticum aestivum, post-emergence, 240 h, read-out: Plant response rating, Wheat; for plant injury at 125 g/ha: 125 g ai/ha, Postemergence, visual injury after approximately 10 d, 0 to 100 scale where 0 is no effect and 100 is complete control; for plant injury at 500 g/ha: 500 g ai/ha, postemergence, visual injury, 0 to 100 scale (0 no effect, 100 complete control), approx. 10 d
In short: as §1

[11] = system: barnyardgrass (Echinochloa crus-galli); test: Test A preemergence; details: Echinochloa crus-galli, pre-emergence, 240 h; for pest or weed control at 125 g/ha: 125 g ai/ha, Preemergence, visual injury rating after approximately 10 d, read-out: Barnyardgrass plant response rating (0 to 100 scale, 0 is no effect, 100 is complete control); for pest or weed control at 500 g/ha: 500 g ai/ha, preemergence, visual injury rating about 10 d after treatment, 0 to 100 scale (0 no effect, 100 complete control), read-out: Barnyardgrass plant response rating
In short: as §1

[12] = system: ryegrass, Italian (Italian ryegrass, Lolium multiflorum); test: Test A preemergence; details: Lolium multiflorum, pre-emergence, 240 h; for pest or weed control at 125 g/ha: 125 g ai/ha, Preemergence, visual injury rating after approximately 10 d, read-out: Ryegrass, Italian plant response rating (0 to 100 scale, 0 is no effect, 100 is complete control); for pest or weed control at 500 g/ha: 500 g ai/ha, preemergence, visual injury rating about 10 d after treatment, 0 to 100 scale (0 no effect, 100 complete control), read-out: Ryegrass, Italian plant response rating
In short: as §1

[13] = system: Kochia (Kochia scoparia); test: Test A preemergence; details: Bassia scoparia, pre-emergence, 240 h; for pest or weed control at 125 g/ha: 125 g ai/ha, Preemergence, visual injury rating after approximately 10 d, read-out: Kochia plant response rating (0 to 100 scale, 0 is no effect, 100 is complete control); for pest or weed control at 500 g/ha: 500 g ai/ha, preemergence, visual injury rating about 10 d after treatment, 0 to 100 scale (0 no effect, 100 complete control), read-out: Kochia plant response rating
In short: as §1

[14] = system: giant foxtail (Setaria faberii); test: Test A preemergence; details: Setaria faberi, pre-emergence, 240 h; for pest or weed control at 125 g/ha: 125 g ai/ha, Preemergence, visual injury rating after approximately 10 d, read-out: Foxtail, Giant plant response rating (0 to 100 scale, 0 is no effect, 100 is complete control); for pest or weed control at 500 g/ha: 500 g ai/ha, preemergence, visual injury rating about 10 d after treatment, 0 to 100 scale (0 no effect, 100 complete control), read-out: Foxtail, Giant plant response rating
In short: as §1

[15] = system: ragweed (common ragweed, Ambrosia elatior); test: Test A preemergence; details: Ambrosia artemisiifolia, pre-emergence, 240 h; for pest or weed control at 125 g/ha: 125 g ai/ha, Preemergence, visual injury rating after approximately 10 d, read-out: Ragweed plant response rating (0 to 100 scale, 0 is no effect, 100 is complete control); for pest or weed control at 500 g/ha: 500 g ai/ha, preemergence, visual injury rating about 10 d after treatment, 0 to 100 scale (0 no effect, 100 complete control), read-out: Ragweed plant response rating
In short: as §1

[16] = system: pigweed (Amaranthus retroflexus); test: Test A preemergence; details: Amaranthus retroflexus, pre-emergence, 240 h; for pest or weed control at 125 g/ha: 125 g ai/ha, Preemergence, visual injury rating after approximately 10 d, read-out: Pigweed plant response rating (0 to 100 scale, 0 is no effect, 100 is complete control); for pest or weed control at 500 g/ha: 500 g ai/ha, preemergence, visual injury rating about 10 d after treatment, 0 to 100 scale (0 no effect, 100 complete control), read-out: Pigweed plant response rating
[17] = system: ducksalad (Heteranthera limosa); test: Test B flooded paddy test; details: Heteranthera limosa, 250 g ai/ha, Flood; 0 to 100 scale where 0 is no effect and 100 is complete control; read-out: Ducksalad plant response rating
In short: (§2)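 Visual ratings (0 none to 100 complete control) are relative to untreated plants, taken 13–15 d after treatment in a greenhouse. Test material went straight into floodwater standing 3 cm above the soil, kept constant, on plants at the 2-leaf stage.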

[18] = system: barnyardgrass (Echinochloa crus-galli); test: Test B flooded paddy test; details: Echinochloa crus-galli, 250 g ai/ha, Flood; 0 to 100 scale where 0 is no effect and 100 is complete control; read-out: Barnyardgrass plant response rating
In short: as §2

[19] = system: rice (Oryra sativa); test: Test B flooded paddy test; details: Oryza sativa, 250 g ai/ha, Flood; 0 to 100 scale where 0 is no effect and 100 is complete control; read-out: Rice plant response rating
In short: as §2

[20] = system: sedge, umbrella (small-flower umbrella sedge, Cyperus difformis); test: Test B flooded paddy test; details: Cyperus difformis, 250 g ai/ha, Flood; 0 to 100 scale where 0 is no effect and 100 is complete control; read-out: Sedge, Umbrella plant response rating
In short: as §2

| SMILES | pest or weed control at 125 g/ha [1] [%] | pest or weed control at 500 g/ha [1] [%] | pest or weed control at 125 g/ha [2] [%] | pest or weed control at 500 g/ha [2] [%] | pest or weed control at 125 g/ha [3] [%] | pest or weed control at 500 g/ha [3] [%] | pest or weed control at 125 g/ha [4] [%] | pest or weed control at 500 g/ha [4] [%] | pest or weed control at 125 g/ha [5] [%] | pest or weed control at 500 g/ha [5] [%] | Corn plant response rating (crop injury, 0 = no effect, 100 = complete kill) at 125 g/ha [6] [%] | Corn plant response rating (crop injury, 0 = no effect, 100 = complete kill) at 500 g/ha [6] [%] | pest or weed control at 125 g/ha [7] [%] | pest or weed control at 500 g/ha [7] [%] | pest or weed control at 125 g/ha [8] [%] | pest or weed control at 500 g/ha [8] [%] | pest or weed control at 125 g/ha [9] [%] | pest or weed control at 500 g/ha [9] [%] | plant injury at 125 g/ha [10] [%] | plant injury at 500 g/ha [10] [%] | further results |
| --- | --- | --- | --- | --- | --- | --- | --- | --- | --- | --- | --- | --- | --- | --- | --- | --- | --- | --- | --- | --- | --- |
| Cc1cc([C@H]2CN(C)C(=O)[C@@H]2C(=O)Nc2ccccc2F)cc(C)c1Br [Compound 1023] | 90 | 90 | 30 | 30 | 0 | 20 | 50 | 50 | 70 | 90 | 0 | 50 | 0 | 0 | 60 | 60 | 0 | 30 | 0 | 20 | pest or weed control at 125 g/ha [11]: 90%; pest or weed control at 500 g/ha [11]: 90%; pest or weed control at 125 g/ha [12]: 50%; pest or weed control at 500 g/ha [12]: 70%; pest or weed control at 125 g/ha [13]: 0%; pest or weed control at 500 g/ha [13]: 0%; pest or weed control at 125 g/ha [14]: 90%; pest or weed control at 500 g/ha [14]: 90%; pest or weed control at 125 g/ha [15]: 0%; pest or weed control at 500 g/ha [15]: 40%; pest or weed control at 125 g/ha [16]: 30%; pest or weed control at 500 g/ha [16]: 30%; pest or weed control at 250 g/ha [17]: 65%; pest or weed control at 250 g/ha [18]: 40%; pest or weed control at 250 g/ha [19]: 20%; pest or weed control at 250 g/ha [20]: 0% |
| CSc1ccccc1NC(=O)[C@H]1C(=O)N(C)C[C@@H]1c1cc(C)c(Br)c(C)c1 [Compound 1025] | 60 | 70 | 0 | 30 | 0 | 0 | 30 | 50 | 60 | 60 | 0 | 20 | 0 | 0 | 30 | 30 | 0 | 30 | 0 | 0 | pest or weed control at 125 g/ha [11]: 70%; pest or weed control at 500 g/ha [11]: 70%; pest or weed control at 125 g/ha [12]: 0%; pest or weed control at 500 g/ha [12]: 30%; pest or weed control at 125 g/ha [13]: 0%; pest or weed control at 500 g/ha [13]: 20%; pest or weed control at 125 g/ha [14]: 90%; pest or weed control at 500 g/ha [14]: 90%; pest or weed control at 125 g/ha [15]: 0%; pest or weed control at 500 g/ha [15]: 0%; pest or weed control at 125 g/ha [16]: 0%; pest or weed control at 500 g/ha [16]: 50%; pest or weed control at 250 g/ha [17]: 0%; pest or weed control at 250 g/ha [18]: 0%; pest or weed control at 250 g/ha [19]: 0%; pest or weed control at 250 g/ha [20]: 0% |
